Like-named read-outs stand apart in the source and are kept apart here.
Legend:
α4β7 integrin = α4β7 integrin (Homo sapiens (Human), UniProt P13612+P26010); assay: Integrin Adhesion Assay: Protocol 1 (MAdCAM-coated plate, RPMI-8866 cells, CellTiter GLO readout); type: cell-based
Procedure: α4β7 and α4β1 inhibition was evaluated in vitro using at least one of the following procedures:
Integrin Adhesion Assay: Protocol 1
MAdCAM (R&D Systems, 0.1 ug) was diluted in 50 μL PBS, added to each well of an opaque ELISA plate (Thermo), and incubated overnight at 4° C. Coated plates were washed once with PBS and then blocked with 200 μL of assay buffer (10 mM HEPES, 150 mM NaCl, 1 mM MnCl2, 0.1 mM CaCl2), 1% BSA) for 1 hour at 37° C. and 5% CO2. After incubation, buffer was aspirated from the plates and 50 μL of fresh assay buffer is added. Compounds were added by a compouns dispenser (Tecan) and DMSO concentration was normalized to 1% across each plate. 50 μL of RPMI-8866 cells (2×10^6 per mL) were added to each well and the plates were incubated for 1 hour at 37° C. and 5% CO2. After incubation, plates were allowed to cool to RT for 10 minutes before being washed four times in assay buffer by an automated plate washer (BioTek). After washing, 100 μL of a 1:1 mixture of assay buffer and CellTiter GLO 2.0 reagent (Promega) were added to each well. Plates were mixed for 2 minutes at 1000 rpm and then allowed to incubate an additional 10 minutes before reading out luminescence on a Tecan Spark plate reader. Raw data was converted to percent inhibition based on DMSO only and control compound wells, and curves were analyzed by 4-parameter fit within Dotmatics software.

α4β1 integrin = α4β1 integrin (Homo sapiens (Human), UniProt P05556+P13612); assay: Integrin Adhesion Assay: Protocol 5 (VCAM-coated plate, RPMI-8866 cells with stable LOF mutation of the ITGB7 gene); type: cell-based
In short: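 RPMI-8866 B cells with CRISPR/Cas9 ITGB7 knockout (clonal, verified by flow cytometry) adhered to VCAM-coated wells for 1 h at 37° C in HEPES/NaCl buffer with 1 mM MnCl2, 0.1 mM CaCl2, 1% BSA, 1% DMSO. Bound cells quantified by CellTiter-Glo luminescence after washing; % inhibition versus DMSO and control, 4-parameter fit.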

[1] = RPMI-8866 cells with stable LOF mutation of the ITGB7 gene, read-out: Mean IC50 α4β1 KO^b
[2] = integrin adhesion assay, determined by at least one of the assays described (protocol not specified)

Chain of α4β7 integrin (P13612 34-1032): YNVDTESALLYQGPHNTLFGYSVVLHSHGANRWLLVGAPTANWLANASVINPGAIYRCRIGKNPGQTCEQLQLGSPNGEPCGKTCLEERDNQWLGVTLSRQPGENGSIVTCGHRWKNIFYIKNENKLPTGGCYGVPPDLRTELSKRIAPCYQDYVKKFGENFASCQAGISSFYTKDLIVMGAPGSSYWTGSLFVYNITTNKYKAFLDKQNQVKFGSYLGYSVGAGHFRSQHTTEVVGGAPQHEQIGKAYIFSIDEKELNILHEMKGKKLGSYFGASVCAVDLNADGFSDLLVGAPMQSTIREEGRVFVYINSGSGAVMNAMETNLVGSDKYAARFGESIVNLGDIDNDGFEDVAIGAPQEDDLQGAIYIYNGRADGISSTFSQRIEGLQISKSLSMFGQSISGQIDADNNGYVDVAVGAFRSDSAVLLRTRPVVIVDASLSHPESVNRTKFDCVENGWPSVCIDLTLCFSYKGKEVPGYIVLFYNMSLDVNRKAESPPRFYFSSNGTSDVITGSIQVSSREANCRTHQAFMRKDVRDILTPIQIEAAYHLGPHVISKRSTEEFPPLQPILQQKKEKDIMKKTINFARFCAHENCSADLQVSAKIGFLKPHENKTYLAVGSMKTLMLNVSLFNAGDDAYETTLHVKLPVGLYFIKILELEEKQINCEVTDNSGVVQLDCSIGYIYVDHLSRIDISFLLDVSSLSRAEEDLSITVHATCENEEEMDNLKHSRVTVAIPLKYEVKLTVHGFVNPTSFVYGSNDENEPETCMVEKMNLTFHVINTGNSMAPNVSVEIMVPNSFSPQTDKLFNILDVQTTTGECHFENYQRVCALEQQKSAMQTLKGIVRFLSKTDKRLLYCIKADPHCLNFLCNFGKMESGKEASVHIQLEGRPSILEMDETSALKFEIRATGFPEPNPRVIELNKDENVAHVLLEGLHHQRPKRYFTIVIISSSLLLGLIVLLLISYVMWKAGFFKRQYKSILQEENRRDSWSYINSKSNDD
Chain of α4β7 integrin (P26010 20-798): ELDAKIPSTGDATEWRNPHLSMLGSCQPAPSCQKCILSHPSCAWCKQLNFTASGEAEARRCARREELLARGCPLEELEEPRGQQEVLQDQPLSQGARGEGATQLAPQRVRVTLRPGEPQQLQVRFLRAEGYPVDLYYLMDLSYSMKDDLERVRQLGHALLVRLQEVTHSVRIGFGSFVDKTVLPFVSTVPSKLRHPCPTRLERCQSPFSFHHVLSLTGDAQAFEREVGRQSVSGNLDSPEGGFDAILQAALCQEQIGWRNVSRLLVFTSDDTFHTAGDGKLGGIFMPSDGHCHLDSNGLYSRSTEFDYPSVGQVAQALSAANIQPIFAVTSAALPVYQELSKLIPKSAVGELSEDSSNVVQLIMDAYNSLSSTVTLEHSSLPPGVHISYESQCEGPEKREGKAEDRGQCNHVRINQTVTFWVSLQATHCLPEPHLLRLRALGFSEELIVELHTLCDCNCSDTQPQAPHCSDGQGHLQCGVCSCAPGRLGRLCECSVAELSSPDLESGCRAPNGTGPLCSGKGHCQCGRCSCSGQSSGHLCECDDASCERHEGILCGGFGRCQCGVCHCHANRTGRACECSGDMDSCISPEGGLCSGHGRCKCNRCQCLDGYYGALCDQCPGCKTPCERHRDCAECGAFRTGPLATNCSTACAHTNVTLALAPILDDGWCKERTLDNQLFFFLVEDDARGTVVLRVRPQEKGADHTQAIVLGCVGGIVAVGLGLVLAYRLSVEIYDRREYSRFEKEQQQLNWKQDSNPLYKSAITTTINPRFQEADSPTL
Chain of α4β1 integrin (P13612 34-1032): as the sequence (P13612 34-1032) above
Chain of α4β1 integrin (P05556 21-798): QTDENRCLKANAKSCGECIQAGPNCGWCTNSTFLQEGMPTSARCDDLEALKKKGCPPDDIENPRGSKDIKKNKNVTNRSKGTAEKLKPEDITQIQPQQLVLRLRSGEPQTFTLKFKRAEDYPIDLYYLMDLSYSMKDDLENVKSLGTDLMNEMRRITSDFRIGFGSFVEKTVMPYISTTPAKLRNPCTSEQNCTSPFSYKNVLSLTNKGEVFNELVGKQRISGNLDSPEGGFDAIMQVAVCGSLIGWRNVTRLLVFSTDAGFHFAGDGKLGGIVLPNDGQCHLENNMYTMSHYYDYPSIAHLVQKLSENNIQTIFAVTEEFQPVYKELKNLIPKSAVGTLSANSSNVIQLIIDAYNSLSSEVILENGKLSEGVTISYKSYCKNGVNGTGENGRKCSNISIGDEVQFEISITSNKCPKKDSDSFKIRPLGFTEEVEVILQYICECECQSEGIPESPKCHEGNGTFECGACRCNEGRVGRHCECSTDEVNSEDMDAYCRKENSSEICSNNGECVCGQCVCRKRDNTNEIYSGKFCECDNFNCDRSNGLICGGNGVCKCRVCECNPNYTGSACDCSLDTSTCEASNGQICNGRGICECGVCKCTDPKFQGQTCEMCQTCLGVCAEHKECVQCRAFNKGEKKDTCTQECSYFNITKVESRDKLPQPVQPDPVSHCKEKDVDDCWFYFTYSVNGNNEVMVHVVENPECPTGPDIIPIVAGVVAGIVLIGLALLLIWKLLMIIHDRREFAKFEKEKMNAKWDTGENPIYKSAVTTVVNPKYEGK

Row | Structure (SMILES) | IC50 (α4β7 integrin) [nM] | IC50 (α4β1 integrin; [1]) [nM] | further results
1 | Cn1c(=O)c(-c2cccc3c(C[C@H](NC(=O)[C@]4(C)CC[C@@H](N5CCC(F)(F)CC5)CC4)C(=O)O)cccc23)c(C(F)(F)F)c2ccccc21 [Compound 401] | 10 to 100 | > 1000 | –
2 | CN(C)CCc1ccc2c(c1)c(C(F)(F)F)c(-c1cccc3c(C[C@H](NC(=O)c4c(F)cccc4F)C(=O)O)cccc13)c(=O)n2C [Compound 705] | – | – | IC50 (α4β7 integrin; protocol not given): < 10 nM; IC50 (α4β1 integrin; Protocol 5, RPMI-8866 cells with LOF mutation of ITGB7, VCAM, read-out: Mean IC50 α4β1 KO): 100 to 1000 nM
3 | CN(C)Cc1ccc2c(-c3cccc4c(C[C@H](NC(=O)[C@]5(C)CC[C@H](N6CCOC[C@@H]6C(F)(F)F)CC5)C(=O)O)cccc34)nccc2c1 [Compound 582] | 10 to 100 | > 1000 | –
4 | Cn1c(=O)c(-c2cccc3c(C[C@H](NC(=O)C4(C)CCN(C5COC5)CC4)C(=O)O)cccc23)c(C(F)(F)F)c2ccccc21 [Compound 363] | 10 to 100 | > 1000 | –
5 | Cn1c(=O)c(-c2cccc3c(C[C@H](NC(=O)c4c(F)cc(N(CC(F)(F)F)C5COC5)cc4F)C(=O)O)cccc23)c(C(F)(F)F)c2ccccc21 [Compound 380] | 10 to 100 | > 1000 | –
6 | Cn1c(=O)c(-c2cccc3c(C[C@H](NC(=O)c4c(F)cc(N5CCOC[C@@H]5C(F)(F)F)cc4F)C(=O)O)cccc23)c(C(F)(F)F)c2ccccc21 [Compound 317] | 10 to 100 | > 1000 | –
7 | Cn1c(=O)c(-c2cccc3c(C[C@H](NC(=O)[C@]4(C)CC[C@H](N5CCC(F)(F)CC5)CC4)C(=O)O)cccc23)c(C(F)(F)F)c2ccccc21 [Compound 402] | > 1000 | > 1000 | –
8 | Cn1c(=O)c(-c2cccc3c(C[C@H](NC(=O)C4(C)CCN([C@H]5CCOC5)CC4)C(=O)O)cccc23)c(C(F)(F)F)c2ccccc21 [Compound 413] | 10 to 100 | > 1000 | –
9 | CN(C)c1ccc2c(-c3cccc4c(C[C@H](NC(=O)c5c(F)cc(N6CCOC[C@@H]6C(F)(F)F)cc5CN5CCOCC5)C(=O)O)cccc34)nccc2c1 [Compound 299] | < 10 | > 1000 | –
10 | CO[C@H](C)c1cc(F)c(C(=O)N[C@@H](Cc2cccc3c(-c4c(C(F)(F)F)c5ccccc5n(C)c4=O)cccc23)C(=O)O)c(F)c1 [Compound 375] | 100 to 1000 | > 1000 | –
11 | Cn1c(C(F)(F)F)cc(C(F)(F)F)c(-c2cccc3c(C[C@H](NC(=O)[C@]4(C)CC[C@H](N5CCOC[C@@H]5C(F)(F)F)CC4)C(=O)O)cccc23)c1=O [Compound 408] | 10 to 100 | > 1000 | –
12 | Cn1c(=O)c(-c2cccc3c(C[C@H](NC(=O)c4c(F)cccc4CN4CCCC4)C(=O)O)cccc23)c(C(F)(F)F)c2ccccc21 [Compound 351] | < 10 | > 1000 | –
13 | Cn1c(=O)c(-c2cccc3c(C[C@H](NC(=O)c4c(F)cc(N5CCCC[C@@H]5C(F)(F)F)cc4F)C(=O)O)cccc23)c(C(F)(F)F)c2ccccc21 [Compound 318] | 100 to 1000 | > 1000 | –
14 | CN1CCN(Cc2cc(N3CCOC[C@@H]3C(F)(F)F)cc(F)c2C(=O)N[C@@H](Cc2cccc3c(-c4c(C(F)(F)F)c5ccccc5n(C)c4=O)cccc23)C(=O)O)CC1 [Compound 360] | < 10 | > 1000 | –
15 | Cn1c(C(F)(F)F)cc(C(F)(F)F)c(-c2cccc3c(C[C@H](NC(=O)[C@]4(C)CC[C@@H](N5CCC(F)(F)CC5)CC4)C(=O)O)cccc23)c1=O (single isomer, unassigned) [Compound 405] | 10 to 100 | > 1000 | –
16 | CN(c1cc(F)c(C(=O)N[C@@H](Cc2cccc3c(-c4c(C(F)(F)F)c5ccccc5n(C)c4=O)cccc23)C(=O)O)c(F)c1)C1COC1 [Compound 364] | 100 to 1000 | > 1000 | –
17 | CN(C)Cc1cccc2c(-c3cccc4c(C[C@H](NC(=O)C5(C)CCN(CC(F)(F)F)CC5)C(=O)O)cccc34)nccc12 [Compound 420] | 10 to 100 | > 1000 | –
18 | CN(C)Cc1cc(-c2cccc3c(C[C@H](NC(=O)c4c(F)cc(N5CCOC[C@@H]5C(F)(F)F)cc4CN4CCOCC4)C(=O)O)cccc23)c2cnccc2c1 [Compound 294] | < 10 | > 1000 | –
19 | Cn1ccc(C(F)(F)F)c(-c2cncc3c(C[C@H](NC(=O)c4c(F)cccc4F)C(=O)O)cccc23)c1=O [Compound 211] | – | – | IC50 (α4β7 integrin; [2]): 10 to 100 nM
20 | Cn1c(=O)c(-c2cccc3c(C[C@H](NC(=O)c4c(F)cc(-c5ccc(F)c(Cl)c5)cc4F)C(=O)O)cccc23)c(C(F)(F)F)c2ccccc21 [Compound 345] | > 1000 | – | –
21 | Cn1c(=O)c(-c2cccc3c(C[C@H](NC(=O)c4c(F)cc(N5CCOC[C@H]5c5ccccc5)cc4F)C(=O)O)cccc23)c(C(F)(F)F)c2ccccc21 [Compound 334] | > 1000 | – | –
22 | Cn1ccc(=O)n(-c2cccc3c(C[C@H](NC(=O)c4c(F)ccc(C#N)c4F)C(=O)O)cccc23)c1=O [Compound 32] | – | – | IC50 (α4β7 integrin; [2]): 10 to 100 nM

Row | Structure (SMILES) | IC50 (α4β7 integrin) [nM] | IC50 (α4β1 integrin; [1]) [nM] | further results
23 | CO[C@@H]1C[C@H](c2cc(F)c(C(=O)N[C@@H](Cc3cccc4c(-c5c(C(F)(F)F)c6ccccc6n(C)c5=O)cccc34)C(=O)O)c(F)c2)N(C)C1 [Compound 465] | 100 to 1000 | – | –
24 | CN1CCC(c2cc(F)c(C(=O)N[C@@H](Cc3cccc4c(-c5c(C(F)(F)F)c6ccccc6n(C)c5=O)cccc34)C(=O)O)c(F)c2)CC1 [Compound 383] | 100 to 1000 | – | –
25 | Cn1c(=O)c(-c2cccc3c(C[C@H](NC(=O)c4c(F)cc(N(CC5COC5)C5COC5)cc4F)C(=O)O)cccc23)c(C(F)(F)F)c2ccccc21 [Compound 394] | 10 to 100 | – | –
26 | CN1CC(C)(Cc2cc(F)c(C(=O)N[C@@H](Cc3cccc4c(-c5c(C(F)(F)F)c6ccccc6n(C)c5=O)cccc34)C(=O)O)c(F)c2)C1 [Compound 369] | > 1000 | – | –
27 | Cn1c(=O)c(-c2cccc3c(C[C@H](NC(=O)c4c(F)cc(OC(F)(F)F)cc4F)C(=O)O)cccc23)c(C(F)(F)F)c2ccccc21 [Compound 370] | > 1000 | – | –
28 | Cn1c(=O)c(-c2cccc3c(C[C@H](NC(=O)c4c(F)cc(N5CCO[C@H](c6ccccc6)C5)cc4F)C(=O)O)cccc23)c(C(F)(F)F)c2ccccc21 [Compound 333] | > 1000 | – | –
29 | Cn1c(=O)c(-c2cccc3c(C[C@H](NC(=O)c4c(F)cc(N5CCS(=O)(=O)CC5)cc4F)C(=O)O)cccc23)c(C(F)(F)F)c2ccccc21 [Compound 398] | 10 to 100 | – | –
30 | Cn1c(=O)c(-c2cccc3c(C[C@H](NC(=O)c4c(F)cc(C5CCCCC5)cc4F)C(=O)O)cccc23)c(C(F)(F)F)c2ccccc21 [Compound 376] | > 1000 | – | –
31 | Cn1c(=O)c(-c2cccc3c(C[C@H](NC(=O)c4cc5ccc(N6CC(F)(F)C6)cn5n4)C(=O)O)cccc23)c(C(F)(F)F)c2ccccc21 [Compound 428] | > 1000 | – | –
32 | Cn1c(=O)c(-c2cccc3c(C[C@H](NC(=O)c4c(F)cc([C@H]5C[C@H](N(C)C)C5)cc4F)C(=O)O)cccc23)c(C(F)(F)F)c2ccccc21 [Compound 417] | > 1000 | – | –
33 | Cn1ccc(C(F)(F)F)c(-c2cccc3c(C[C@H](NC(=O)c4c(F)cc(N5CC(F)(F)OC(F)(F)C5)cc4F)C(=O)O)cccc23)c1=O [Compound 441] | 10 to 100 | – | –
34 | CC1(C)NC(=O)c2c(-c3cccc4c(C[C@H](NC(=O)c5c(F)cccc5F)C(=O)O)cccc34)cccc21 [Compound 5] | – | – | IC50 (α4β7 integrin; [2]): 10 to 100 nM
35 | Cn1c(=O)c(-c2cccc3c(CC(Nc4nccc5cccc(F)c45)C(=O)O)cccc23)c(C(F)(F)F)c2ccccc21 (stereo not shown) [Compound 437] | > 1000 | – | –
36 | Cn1c(=O)c(-c2cccc3c(C[C@H](NC(=O)c4c(F)cc(N5CCO[C@@H](c6ccccc6)C5)cc4F)C(=O)O)cccc23)c(C(F)(F)F)c2ccccc21 [Compound 338] | > 1000 | – | –
37 | Cc1nn(CC(F)(F)F)c(C)c1C(=O)N[C@@H](Cc1cccc2c(-n3c(=O)ccn(C)c3=O)cccc12)C(=O)O [Compound 122] | – | – | IC50 (α4β7 integrin; [2]): 10 to 100 nM
38 | Cn1c(=O)c(-c2cccc3c(C[C@H](NC(=O)c4c(F)cc(N5CCOCC5c5ccc(C(F)(F)F)cc5)cc4F)C(=O)O)cccc23)c(C(F)(F)F)c2ccccc21 (stereo partly shown) [Compound 344] | > 1000 | – | –
39 | Cc1cccc(C)c1-c1cc(F)c(C(=O)N[C@@H](Cc2cccc3c(-c4c(C(F)(F)F)c5ccccc5n(C)c4=O)cccc23)C(=O)O)c(F)c1 [Compound 304] | > 1000 | – | –
40 | Cn1c(=O)c(-c2cccc3c(C[C@H](NC(=O)c4c(F)cc(N5CCOC(c6cccc(C(F)(F)F)c6)C5)cc4F)C(=O)O)cccc23)c(C(F)(F)F)c2ccccc21 (stereo partly shown) [Compound 342] | > 1000 | – | –
41 | Cc1nccc(O)c1C(=O)N[C@@H](Cc1cccc2c(-n3c(=O)ccn(C)c3=O)cccc12)C(=O)O [Compound 125] | – | – | IC50 (α4β7 integrin; [2]): > 1000 nM
42 | Cc1nn(C2CCOCC2)c(C)c1C(=O)N[C@@H](Cc1cccc2c(-n3c(=O)ccn(C)c3=O)cccc12)C(=O)O [Compound 123] | – | – | IC50 (α4β7 integrin; [2]): 10 to 100 nM
43 | Cn1c(=O)c(-c2cccc3c(C[C@H](NC(=O)c4c(F)cc(N5CCOC6(CCC6)C5)cc4F)C(=O)O)cccc23)c(C(F)(F)F)c2ccccc21 [Compound 340] | 100 to 1000 | – | –

Reference: patent US20250313535A1, “ALPHA 4 BETA 7 INTEGRIN MODULATORS AND USES THEREOF” (DICE MOLECULES SV, INC., priority 2022, published 2025)
